Laboratory results: patent US4430343A, “Benzimidazole derivatives, process for the preparation thereof and pharmaceutical composition containing the same” (Kanebo, Ltd., priority 1981, dated 1984)
Structures can show the parent of a compound that is named as a salt.

How the values were obtained:
[1] = in vivo; settings: mouse, ddY male mice, oral, observed one week, Weil's method, read-out: Acute toxicity LD50
Procedure: The same compounds as used in the above protecting activity against histamine were used.
The LD50 was calculated based on the number of dead mice within one week according to Weil's method.

[2] = test system: histamine-induced lethality; experiment: Protecting activity against histamine-induced lethality (method similar to Labell & Tislow); format: in vivo, Hartley strain male guinea pigs; settings: for ED50: Cavia porcellus, guinea pigs, oral, 1 hour before histamine 1.1 mg/kg into cephalic vein, survival after two hours, probit method; for protecting activity against histamine-induced lethality in comparison with that of the compounds of the present invention: relative to compounds of the present invention
Procedure: 1. Protecting activity against histamine-induced lethality
(3) Homochlorcyclizine hydrochloride (reference compound)
The test was carried out by a method similar to Labell & Tislow method (cf. J. Pharmacol Exp. Ther., 113, 72, 1955). […] After one hour, histamine (1.1 mg/kg, in a physiological saline solution) was injected to the animals in cephalic vein. After two hours, the number of live guinea pigs was counted, and therefrom ED50 of the compounds was calculated according to probit method.

[3] = test system: hexobarbital-induced sleep; experiment: Potentiating effect on hexobarbital-induced sleep in mice; format: in vivo
Description: Besides, the conventional antihistaminics have side-effect such as hypnotic activity.

Compound	LD50 at 168 h [1]	ED50 [2]	protecting activity against histamine-induced lethality in comparison with that of the compounds of the present invention [2]	potentiating effect on hexobarbital-induced sleep ([3]; 50 mg/kg (p.o.))	potentiating effect on hexobarbital-induced sleep ([3]; 25 mg/kg (p.o.))
C=CCOCCn1c(N2CCN(C)CC2)nc2ccccc21 [Example 4, 1-[2-(allyloxy)ethyl]-2-(4-methyl-1-piperazinyl)benzimidazole.3/2 fumarate]	1640 mg/kg	0.0058 mg/kg			
CN1CCN(c2nc3ccccc3n2Cc2ccccc2)CC1 [1-benzyl-2-(4-methyl-1-piperazinyl)benzimidazole, reference compound]			about one severals to one tenth or less		
CCOCCn1c(N2CCCN(C)CC2)nc2ccccc21 [Example 3, 1-[2-(ethoxy)ethyl]-2-(4-methyl-1-homopiperazinyl)benzimidazole.difumarate]	628 mg/kg	0.0047 mg/kg		did not show such potentiating effect	
CN1CCN(c2nc3ccccc3n2CCOc2ccccc2)CC1 [Example 12, 1-[2-(phenoxy)ethyl]-2-(4-methyl-1-piperazinyl)benzimidazole.3/2 fumarate]	1110 mg/kg	0.017 mg/kg			
C#CCOCCn1c(N2CCCN(C)CC2)nc2ccccc21 [Example 1, 1-[2-(propargyloxy)ethyl]-2-(4-methyl-1-homopiperazinyl)benzimidazole difumarate]	990 mg/kg	0.0046 mg/kg			
CN1CCN(c2nc3ccccc3[nH]2)CC1 [2-(4-methyl-1-piperazinyl)benzimidazole, reference compound]			about one severals to one tenth or less		
CCCOCCn1c(N2CCN(C)CC2)nc2ccccc21 [Example 11, 1-[2-(n-propoxy)ethyl]-2-(4-methyl-1-piperazinyl)benzimidazole.3/2 fumarate]	2300 mg/kg	0.015 mg/kg			
CCOCCn1c(N2CCNCC2)nc2ccccc21 [Example 8, 1-[2-(ethoxy)ethyl]-2-(1-piperazinyl)benzimidazole.3/2 fumarate]	2220 mg/kg	0.011 mg/kg		did not show such potentiating effect	
C=CCOCCn1c(N2CCCN(C)CC2)nc2ccccc21 [Example 6, 1-[2-(allyloxy)ethyl]-2-(4-methyl-1-homopiperazinyl)benzimidazole difumarate]	904 mg/kg	0.0088 mg/kg			
CCOCCn1c(N2CCN(C)CC2)nc2ccccc21 [Example 5, 1-[2-(ethoxy)ethyl]-2-(4-methyl-1-piperazinyl)benzimidazole.3/2 fumarate]	1490 mg/kg	0.007 mg/kg			
C#CCOCCn1c(N2CCN(C)CC2)nc2ccccc21 [Example 2, 1-[2-(propargyloxy)ethyl]-2-(4-methyl-1-piperazinyl)benzimidazole.3/2fumarate]	818 mg/kg	0.0047 mg/kg		did not show such potentiating effect	
CCCOCCn1c(N2CCCN(C)CC2)nc2ccccc21 [Example 7, 1-[2-(n-propoxy)ethyl]-2-(4-methyl-1-homopiperazinyl)benzimidazole difumarate]	884 mg/kg	0.0095 mg/kg			
CCOCCn1c(N2CCN(CC)CC2)nc2ccccc21 [Example 9, 1-[2-(ethoxy)ethyl]-2-(4-ethyl-1-piperazinyl)benzimidazole.3/2 fumarate]	2640 mg/kg	0.013 mg/kg		did not show such potentiating effect	
CN1CCCN(C(c2ccccc2)c2ccc(Cl)cc2)CC1 (stereo not shown) [Homochlorcyclizine hydrochloride, reference compound]	382 mg/kg	0.26 mg/kg			remarkable potentiating effect
CN1CCN(c2nc3ccccc3n2C)CC1 [1-methyl-2-(4-methyl-1-piperazinyl)benzimidazole, reference compound]			about one severals to one tenth or less		
CN1CCCN(c2nc3ccccc3n2CCOc2ccccc2)CC1 [Example 10, 1-[2-(phenoxy)ethyl]-2-(4-methyl-1-homopiperazinyl)benzimidazole difumarate]	1010 mg/kg	0.014 mg/kg			
